According to PubChem BioAssay AID1745844 (Carcinogenic Potency Database (CPDB), 2022):
Calls of active or inactive are those of the source. No rule for the calls is given here.

System: rodent lifetime carcinogenesis bioassay, tumor incidence TD50
Test: chronic cancer bioassays in animals – CPDB, compiled studies (AID 1745844)

**Q.** For `Cc1ccc2c(c1N)C(=O)c1ccccc1C2=O`, which TD50 (mouse, strain B6C3F1, females, in feed, site: liver, lesion: hepatocellular adenoma + hepatocellular carcinoma + neoplastic nodule, dosed 70 weeks, study length 97 weeks) is on record?
**A.** The TD50 was 174 mg/kg/day.

**Q.** And the TD50 (mouse, strain B6C3F1, females, in feed, site: liver, lesion: hepatocellular carcinoma + neoplastic nodule, dosed 70 weeks, study length 97 weeks)?
**A.** The TD50 was 174 mg/kg/day.

**Q.** What about the carcinogen call (mouse, strain B6C3F1, males, in feed, site: any site (literature study), lesion: several types, types named in the paper, dosed 70 weeks, study length 97 weeks) of the same molecule?
**A.** The carcinogen call was “negative (inactive)”.

**Q.** And the TD50 (rat, strain Fischer 344, females, in feed, site: liver, lesion: hepatocellular adenoma + hepatocellular carcinoma + neoplastic nodule, dosed 78 weeks, study length 104 weeks)?
**A.** The TD50 was 115 mg/kg/day.

**Q.** What about the TD50 (rat, strain Fischer 344, females, in feed, site: liver, lesion: hepatocellular carcinoma + neoplastic nodule, dosed 78 weeks, study length 104 weeks) of the same molecule?
**A.** The TD50 was 115 mg/kg/day.

**Q.** And the TD50 (rat, strain Fischer 344, females, in feed, site: liver, lesion: hepatocellular carcinoma, dosed 78 weeks, study length 104 weeks)?
**A.** The TD50 was 182 mg/kg/day.

**Q.** And the TD50 (rat, strain Fischer 344, males, in feed, site: any site (literature study), lesion: several types, types named in the paper, dosed 78 weeks, study length 104 weeks)?
**A.** The TD50 was 64.4 mg/kg/day.

**Q.** What about the TD50 (rat, strain Fischer 344, males, in feed, site: kidney + liver, lesion: adenocarcinoma, NOS + tubular-cell adenoma + tubular-cell adenocarcinoma + hepatocellular carcinoma + neoplastic nodule, dosed 78 weeks, study length 104 weeks) of the same molecule?
**A.** The TD50 was 34.1 mg/kg/day.

**Q.** What about the TD50 (rat, strain Fischer 344, males, in feed, site: kidney, lesion: adenocarcinoma, NOS + tubular-cell adenocarcinoma, dosed 78 weeks, study length 104 weeks) of the same molecule?
**A.** The TD50 was 441 mg/kg/day.

**Q.** What about the TD50 (rat, strain Fischer 344, males, in feed, site: kidney, lesion: adenocarcinoma, NOS + tubular-cell adenoma + tubular-cell adenocarcinoma, dosed 78 weeks, study length 104 weeks) of the same molecule?
**A.** Its TD50 is 131 mg/kg/day.

**Q.** And the TD50 (rat, strain Fischer 344, males, in feed, site: kidney, lesion: tubular-cell adenoma, dosed 78 weeks, study length 104 weeks)?
**A.** Its TD50 is 196 mg/kg/day.

**Q.** And the TD50 (rat, strain Fischer 344, males, in feed, site: liver, lesion: hepatocellular adenoma + hepatocellular carcinoma + neoplastic nodule, dosed 78 weeks, study length 104 weeks)?
**A.** The TD50 was 39.9 mg/kg/day.

**Q.** And the TD50 (rat, strain Fischer 344, males, in feed, site: liver, lesion: hepatocellular carcinoma + neoplastic nodule, dosed 78 weeks, study length 104 weeks)?
**A.** Its TD50 is 39.9 mg/kg/day.

**Q.** What about the TD50 (rat, strain Fischer 344, males, in feed, site: liver, lesion: hepatocellular carcinoma, dosed 78 weeks, study length 104 weeks) of the same molecule?
**A.** Its TD50 is 150 mg/kg/day.

**Q.** And the TD50 (rat, strain Fischer 344, males, in feed, site: pituitary gland, lesion: adenoma, NOS + chromophobe adenoma, dosed 78 weeks, study length 104 weeks)?
**A.** The TD50 was 136 mg/kg/day.

**Q.** And the TD50 (rat, strain Fischer 344, males, in feed, site: thyroid gland, lesion: c-cell adenoma + c-cell carcinoma, dosed 78 weeks, study length 104 weeks)?
**A.** The TD50 was 283 mg/kg/day.

**Q.** What does the source list for `N[C@@H](Cc1cnc[nH]1)C(=O)O`?
**A.** carcinogen call (rat, strain F344/DuCrj, females, in feed, site: liver, lesion: hepatocellular adenoma, dosed 104 weeks, study length 107 weeks): negative (inactive); TD50 (rat, strain F344/DuCrj, males, in feed, site: liver, lesion: hepatocellular adenoma, dosed 104 weeks, study length 107 weeks): 52200 mg/kg/day (inactive)

**Q.** `CCOC(=O)N(CC)N=O` was tested. Which TD50 (rat, strain Donryu, females, in drinking water, site: any site (literature study), lesion: several types, types named in the paper, dosed 51 weeks, study length 60 weeks) did it give?
**A.** The TD50 was 0.0784 mg/kg/day.

**Q.** What about the TD50 (rat, strain Donryu, females, in drinking water, site: duodenum, lesion: adenocarcinoma, dosed 51 weeks, study length 60 weeks) of the same molecule?
**A.** The TD50 was 0.555 mg/kg/day.

**Q.** What about the TD50 (rat, strain Donryu, females, in drinking water, site: esophagus, lesion: papilloma, dosed 51 weeks, study length 60 weeks) of the same molecule?
**A.** The TD50 was 0.473 mg/kg/day.

**Q.** And the TD50 (rat, strain Donryu, females, in drinking water, site: esophagus, lesion: squamous-cell carcinoma, dosed 51 weeks, study length 60 weeks)?
**A.** Its TD50 is 0.54 mg/kg/day.

**Q.** What about the TD50 (rat, strain Donryu, females, in drinking water, site: forestomach, lesion: papilloma, dosed 51 weeks, study length 60 weeks) of the same molecule?
**A.** The TD50 was 0.508 mg/kg/day.

**Q.** What about the TD50 (rat, strain Donryu, females, in drinking water, site: forestomach, lesion: squamous-cell carcinoma, dosed 51 weeks, study length 60 weeks) of the same molecule?
**A.** The TD50 was 0.248 mg/kg/day.

**Q.** And the TD50 (rat, strain Donryu, females, in drinking water, site: several sites, sites named in the paper, lesion: papilloma, dosed 51 weeks, study length 60 weeks)?
**A.** Its TD50 is 0.339 mg/kg/day.

**Q.** And the TD50 (rat, strain Donryu, females, in drinking water, site: several sites, sites named in the paper, lesion: squamous-cell carcinoma, dosed 51 weeks, study length 60 weeks)?
**A.** The TD50 was 0.164 mg/kg/day.

**Q.** What about the TD50 (rat, strain F344/DuCrj, females, in drinking water, site: any site (literature study), lesion: one or several types, types not named, dosed 97 weeks, study length 112 weeks) of the same molecule?
**A.** Its TD50 is 0.135 mg/kg/day.

**Q.** What about the TD50 (rat, strain F344/DuCrj, females, in drinking water, site: esophagus, lesion: papilloma, dosed 97 weeks, study length 112 weeks) of the same molecule?
**A.** The TD50 was 0.514 mg/kg/day.

**Q.** What about the TD50 (rat, strain F344/DuCrj, females, in drinking water, site: esophagus, lesion: squamous-cell carcinoma, dosed 97 weeks, study length 112 weeks) of the same molecule?
**A.** Its TD50 is 0.139 mg/kg/day.

**Q.** What about the TD50 (rat, strain F344/DuCrj, females, in drinking water, site: forestomach, lesion: papilloma, dosed 97 weeks, study length 112 weeks) of the same molecule?
**A.** The TD50 was 0.0796 mg/kg/day.

**Q.** And the TD50 (rat, strain F344/DuCrj, females, in drinking water, site: forestomach, lesion: squamous-cell carcinoma, dosed 97 weeks, study length 112 weeks)?
**A.** The TD50 was 0.213 mg/kg/day.

**Q.** What about the TD50 (rat, strain F344/DuCrj, females, in drinking water, site: oral cavity, lesion: papilloma, dosed 97 weeks, study length 112 weeks) of the same molecule?
**A.** The TD50 was 3.02 mg/kg/day.

**Q.** And the TD50 (rat, strain F344/DuCrj, females, in drinking water, site: oral cavity, lesion: squamous-cell carcinoma, dosed 97 weeks, study length 112 weeks)?
**A.** Its TD50 is 0.784 mg/kg/day.

**Q.** And the TD50 (rat, strain F344/DuCrj, females, in drinking water, site: upper gastrointestinal tract, lesion: several types, types named in the paper, dosed 97 weeks, study length 112 weeks)?
**A.** The TD50 was 0.0553 mg/kg/day.

**Q.** How did the TD50 (mouse, strain Ha/ICR, females, i.p., site: abdomen, lesion: sarcoma, dosed 76 weeks, study length 76 weeks) turn out when `ClC/C=C/CCl` was run?
**A.** Its TD50 is 1.52 mg/kg/day.
